According to paper PMC10083437, “Small molecules targeting Pin1 as potent anticancer drugs” (Frontiers in Pharmacology, 2023):
pKd: −log10 of the molar value. Where two headings read alike, the source gives them in different places.

How the values were obtained:
Pin1 [1] = target: T1, Pin1 (Homo sapiens, UniProt Q13526); test: SPR (Biacore S200, Pin1 immobilized on CM5); also PPIase assay IC50 […]; format: binding
T1 construct: human Pin1 with C-terminal His tag (pET-30a-pin1, E. coli BL21)

Pin1 [2] = target: T1, Pin1; test: as above; format: binding; remark: listed apart in the source

T1 sequence (Q13526 whole entry): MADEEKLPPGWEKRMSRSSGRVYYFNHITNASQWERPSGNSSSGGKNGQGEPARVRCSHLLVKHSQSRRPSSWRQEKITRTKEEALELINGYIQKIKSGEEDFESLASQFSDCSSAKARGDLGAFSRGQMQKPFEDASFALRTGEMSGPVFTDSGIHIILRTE

Row | pKd (Pin1 [1]) | pKd (Pin1 [2]) | Structure (SMILES)
1 | 5.01 |  | NS(=O)(=O)c1ccc(-c2[nH]c3ccc(Cl)cc3c2-c2ccc(Cl)cc2)cc1 [HWH8-33, 2-(4-aminosulfonylphenyl)-3-(4-chlorophenyl)-5-chloro-indole]
2 |  | 5.31 | NS(=O)(=O)c1ccc(-c2[nH]c3ccc(Cl)cc3c2-c2cccc(Cl)c2)cc1 [HWH8-36, 2-(4-aminosulfonylphenyl)-3-(3-chlorophenyl)-5-chloro-indole]
